# Test results reported in patent US20030005484A1, “Microbiocidal and pesticidal aromatic aldehydes” (ProGuard, Inc., priority 1994, published 2003).
# Where “and” joins values, the source holds several entries; their conditions need not be identical. Equal entries are not always repeated. Where two headings read alike, the source gives them in different places.
# What was measured:
# pacific mites = pacific mites on Chardonnay grapes, 0.4% spray; format: in vivo
# Method: The effect of 0.4% cinnamic aldehyde on powdery mildew and pacific mites on grapes was examined. Cinnamic aldehyde was diluted to 0.4% in water and sprayed onto a 1.8 acre test plot of Chardonnay grapevines with a tractor drawn, PTO powered sprayer, spraying at approximately 100 psi at a rate of 150 gal./acre. A 3 acre untreated plot served as a negative control. Additional controls included treatment of a 3.8 acre plot with stylet oil and a plot treated with a mix of Rubigan, Omite, and stylet oil, which cost appriximately $60.00/acre. Spray cards were placed randomly through the test block. Ten fruit clusters, which were generally completely covered with powdery mildew, in each of the four fields were flagged. […] Therefore, cinnamic aldehyde was effective at controlling both powdery mildew and pacific mites on grapes.
# [1] = system: thrips insects (Frankliniella occidentalis); experiment: residual activity on filter paper against thrips; format: in vivo; conditions: residue on filter paper, rehydrated 24 and 72 hours after spraying; thrips mortality after one hour
# Method: In the first experiment, two ml of two concentrations of CNMA (0.3 and 1%) were sprayed on filter paper (Whatman). As a negative control, two ml of water also were sprayed on filter paper. Twenty-four hours later, two ml of water were sprayed on treatment and control filter paper, which were then dried for 30 min. Approximately 30 thrips insects (Frankliniella occidentalis) were introduced and the number of F. occidentalis were observed after one hour. Mean mortality was calculated for each treatment.
# After 72 hours, the treatment filter papers were flipped over and only the negative control filter paper and the filter paper treated with 1% CNMA were sprayed with 2 ml of water and allowed to dry for 30 minutes. Approximately 30 thrips were introduced to the two treated filter papers and after one hour the number of dead F. occidentalis were observed and the mean mortality calculated for each treatment. A similar assay was conducted using a-hexyl cinnamaldehyde. Mean mortality was higher for rehydrated filter papers compared to non-rehydrated filter papers over time.
# [2] = system: black bean aphid, Tetranychus urticae; experiment: aphid Petri dish bioassay; conditions: for mortality: three hours contact
# Method: Activity of cinnamic aldehyde and/or coniferyl aldehyde against black bean aphid, Tetranychus urticae, and silverleaf white fly, Bemisia argentifolii was determined as follows:
# Petri dishes (60 mm) were treated with cinnamic aldehyde at 10-25,000 ppm in 2% Tween 80 and 6% NaHCO3 dissolved in water, and the dishes allowed to air dry. Twenty adult aphids (Tetranychus urticae) were put in each dish, (replicate 10 times). The mortality after three hours in contact with a treated plate was compared to that of aphids in petri dishes treated only with diluent. Malathion (250 ppm) was used as a positive control.
# [3] = system: root-knot nematode, Meloidogyne javanica; format: in vivo
# Method: In a double blind study, concentrations of the subject aldehyde compounds were tested for activity against root-knot nematode, Meloidogyne javanica. Nematodes were put in direct contact with the chemical and at 24 hour intervals, mortality was assessed both visually and by probing. Meloidogyne javanica were produced using hydroponics. The nematodes were harvested and used within 24 hours.
# Approximately 100 nematodes in 0.07 mls of water were pipetted into a syracuse dish (Fisher) and 1 ml of test formulation was immediately pipetted into each dish. The dishes were then placed into plastic bags to retain moisture and prevent evaporation. Four syracuse dishes were used for each solution test formulation. […] Moving nematodes were counted as living.
# phylloxera Biotype A = experiment: planter / field box vines, leaf spray, phylloxera population on roots; format: in vivo, Daktulosphaira vitifoliae; conditions: for Number of phylloxera per root piece: Merlot, two weeks; for reduction of population versus control vines: field planter boxes, after two weeks; for phylloxera population, Mean ± 95% CI: boxed 1 year old Merlot
# Text: Planter boxes are wooden boxes with a top surface area of 1.5 m×1 m and are 1.5 m tall. They were filled with a clay-loam soil and each was planted to 4 one-year old Merlot plants in early spring, 1995. They were infested with biotype A phylloxera in May, 1995 by placing about 150 eggs adjacent to an attached root under the soil surface. The plants were irrigated weekly with a fine mist. Treatments were made at various times in July and August 1995 using the household 1 liter-capacity plastic spray bottles, spraying to runoff. At one or two weeks after treatment, plants root systems were removed from the soil and total phylloxera populations were estimated.
# Spider Mites = experiment: spider mites on cabernet sauvignon grapevines, 0.3% spray; format: in vivo; conditions: 0.3% CNMA; two days after spraying; untreated 17.9
# Method: The effect of 0.3% cinnamic aldehyde on leafhoppers and spider mites on grapevine leaves was examined. 30% cinnamic aldehyde was diluted 1:100 in water and sprayed one time on a 1 acre block of cabernet sauvignon grapevines in a vineyard using a 300 gal Pul-Blast rsprayer at 160 psi. 120 gal. were applied to one acre of vineyard. As a control, a one-acre block remained untreated. Blocks were pseudo-replicated so as to obtain an indication of the reliability of the treatment. Prior to treatment mites on leaves were pre-counted using a dissecting microscope. Leafhopper numbers also were determined in the field prior to treatment. Two days after spraying, two leaves, one from the basal portion and one from the proximal portion of the vine were examined from 16 vines from 2 rows for each treatment. Leaf samples also were taken from both sides of the vines (north and south) to include variation due to vine exposure. […]
# aphids = aphids on sprayed roses; format: in vivo; conditions: roses sprayed with emulsion of cinnamic aldehyde and sodium bicarbonate, concomitantly saponin
# [4] = system: melon aphid (Aphis gossypli Glover); experiment: melon aphid bioassay with Storax formulations; format: in vivo, Aphis gossypii; conditions: previous bioassays; plants sprayed to run-off at 1,000 ppm
# Method: The purpose of this study was to determine the effect of STORAX incorporated into various formulations to evaluate its potential use as a synergist. Initial bioassays were conducted using STORAX at 0.6%, 1.0%, 2.0% with Tween 80 (1%) only. A second bioassay was conducted to evaluate the efficacy of STORAX (at 0.6%) alone and STORAX (at 0.6%) plus cinnamic aldehyde (at 0.1%) or alpha hexyl cinnamaldehyde (at 0.1%). […] STORAX combined with cinnamic aldehyde or α-hexyl cinnamic aldehyde reduced the time course of lethality and increases mortality. Moreover, the cinnamic aldehyde-STORAX formulation approaches the lethal time (LT) required at 2 h for kill of certain virus transmitting pests (e.g., brown citrus aphid).
# [5] = CNMA 0.4% in water, 150 gal./acre, controls stylet oil, chemical mix
smiles,measurement,setting,value
O=C/C=C/c1ccccc1 [cinnamic aldehyde],% INHIBITION (MITES),pacific mites; [5],96%
same,MITES POST-SPRAY,pacific mites; [5],1.6
same,MITES PRE-SPRAY,"pacific mites; baseline, CNMA 0.4% plot, stylet oil plot, chemical mix plot",36
same,residual activity,[1],have residual activity
same,mortality,[2]; 10 ppm in 2% Tween 80 and 6% NaHCO3,25%
same,mortality,[2]; 100 ppm in 2% Tween 80 and 6% NaHCO3,50%
same,aphids killed,"[2]; 2500 ppm and above in 2% Tween 80 and 6% NaHCO3, three hours contact with treated dish",100%
same,effect on mortality,[3]; 0.1 ppm in vehicle,no effect on mortality
same,effect on mortality,[3]; 1 ppm in vehicle,no effect on mortality
same,nematodes dead,"[3]; 10 ppm in vehicle, 24 hours",0%
same,nematodes dead,"[3]; 10 ppm in vehicle, 48 hours",15%
same,nematodes dead,"[3]; 10 ppm in vehicle, 72 hours",17.5%
same,nematodes dead,"[3]; 10 ppm in vehicle, 96 hours",22.5%
same,nematodes dead,"[3]; 10 ppm in vehicle, 108 hours",27.5%
same,nematodes dead,"[3]; 10 ppm in vehicle, 132 hours",52.5%
same,nematodes dead,"[3]; 10 ppm in vehicle, 156 hours",52.5%
same,nematodes dead,"[3]; greater than 100 ppm in vehicle (2% Tween 80, 6% NaHCO3), 24 hours",100%
same,Number of phylloxera per root piece,"phylloxera Biotype A; 1 K CNMA, one value per plant",133 and 72 and 95
same,Number of phylloxera per root piece,"phylloxera Biotype A; 20 K (20,000 ppm CNMA in 6% NaHCO3 and 2% Tween-80)",16
same,reduction of population versus control vines,"phylloxera Biotype A; 1,000 ppm leaf spray",92%
same,reduction of population versus control vines,"phylloxera Biotype A; 10,000 ppm leaf spray",95%
same,"phylloxera population, Mean ± 95% CI","phylloxera Biotype A; foliage to runoff, 1000 ppm, Exp. 1",100 ± 31
same,"phylloxera population, Mean ± 95% CI","phylloxera Biotype A; foliage to runoff, 1000 ppm, Exp. 2",58 ± 17
same,"phylloxera population, Mean ± 95% CI","phylloxera Biotype A; foliage to runoff, 10,000 ppm, Exp. 1",60 ± 37
same,"phylloxera population, Mean ± 95% CI","phylloxera Biotype A; foliage to runoff, 10,000 ppm, Exp. 2",43 ± 56
same,MITES/LEAF,Spider Mites,3.27
same,aphids on treated plants,aphids,remained free of aphids
same,time at which an LD50 was observed,[4],2 h
same,time at which an LD75 was observed,[4],24 h
